Experimental data taken from patent publication US4722892A, “Monoclonal antibodies against metal chelates” (priority 1984, dated 1988).
Read-outs that look alike come from different tables or passages of the source.

Experiments:
[1] = tested on: monoclonal antibody CHA255; assay: Association constants of metal chelates with monoclonal antibody CHA255 by equilibrium dialysis (method of Eisen), displacement of In(III)-(L)-aminobenzyl EDTA; format: binding, BALB/c mice; conditions: for Kd: dialysis 24h, 37°, pH 7
From the text: (§1) Table I below sets forth the association constants of the two monoclonal antibodies described in Example II for a number of chelates. In Part A, the relative affinities of the antibodies for aminobenzyl EDTA complexes of In(III) and other ions are shown. In Part B, the binding constants of the antibodies for In(III) complexes with other chelating agents are shown. The metals selected for comparison were trivalent ions similar to In(III) and divalent ions whose EDTA complexes form structures similar to that of an In-EDTA complex. The binding constants for the chelates were determined by the method of Eisen, Meth. Med. Res., 10, 106 (1964) by dialysis of the antibody and metal chelates to near equilibrium (24h) at 37° in 0.05M 2-hydroxyethyl-piperazine-ethanesulfonate, 0.lM NaCl, 0.1% NaN3 and 0.1% bovine serum albumin at pH 7. The concentration of antibody binding sites inside the dialysis bag was 10^-7 M, and the concentration of free In(III)-(L)-aminobenzyl EDTA was in the same range.
(§2) Known amounts of another chelate were added to the solution after equilibrium until roughly half of the bound indium chelate had been displaced at equilibrium.

[2] = tested on: monoclonal antibody CHB235; assay: Association constants of metal chelates with monoclonal antibody CHB235 by equilibrium dialysis (method of Eisen), displacement of In(III)-(L)-aminobenzyl EDTA; format: binding, BALB/c mice; conditions: dialysis 24h, 37°, pH 7
From the text: as §1, §2

[3] = metal-EDTA chelate (not the L-Benzyl-EDTA chelate); from Sillen and Martell / Martell and Smith; cited from earlier work
[4] = Table 1 Part B, indium chelates with different chelators, read-out: K A^CHA255 (antibody binding constant for each indium chelate) (converted)
[5] = Table 1 Part B, indium chelates with different chelators, read-out: K A^CHA235 (antibody binding constant for each indium chelate) (converted)

O=C(O)CN(CC(=O)O)CC(Cc1ccccc1)N(CC(=O)O)CC(=O)O [D-Benzyl-EDTA]
Kd [1, 4]: 15.9 nM
Kd [2, 5]: 27.8 nM

O=C(O)CN(CCN(CC(=O)O)CC(=O)O)CC(=O)O [EDTA]
Kd [1, 4]: 5.88 nM
Kd [2, 5]: 7.69 nM

O=C(O)CN(CCO)CCN(CC(=O)O)CC(=O)O [HED3A]
Kd [1, 4]: 23.8 nM
Kd [2, 5]: 25 nM

In(III)-(L)-aminobenzyl EDTA
Kd ([1]; Table 1 Part A, coefficient of variation in parentheses, read-out: K A^CHA255 (antibody binding constant for metal-L-Benzyl-EDTA chelate) (converted)): 0.25 nM
Kd [1, 4]: 0.25 nM
affinity (KA) ([1]; summary statement, antibody not named): greater than 10^9 M^-1
Kd ([2]; Table 1 Part A, coefficient of variation on next line, read-out: K A^CHB235 (antibody binding constant for metal-L-Benzyl-EDTA chelate) (converted)): 9.09 nM
Kd [2, 5]: 9.09 nM
log K S^EDTA(M) (logarithm of the stability constant for each metal-EDTA chelate) [3]: 25.0
